Reference: patent US20040138200A1, “Pharmaceutical compositions for treatment of Parkinson's disease” (priority 2002, published 2004)
Structures can show the parent of a compound that is named as a salt.

Assay: rotating disk dissolution test
Assay type: physicochemical
Details: 300 rpm; for Rotating Disk Dissolution Rate (RDDR): crystalline salt, 20 mg pellet, about 500 ml dissolution medium at 25° C., slope normalized to initial exposed surface area
Description: In a preferred aspect, the salts of the present invention are crystalline salts. A crystalline salt of the invention dissolves slower than the crystalline maleate salt of the same compound under standard conditions of temperature, pressure, and fluid flow. Preferably, the dissolution rate of a crystalline salt of the invention, when measured by a rotating disk dissolution test, is less than 50% of that of a crystalline maleate salt of the same compound. More preferably, the dissolution rate is less than 25% of that of a crystalline maleate salt of the same compound. More preferably, the dissolution rate is less than 10% of that of a crystalline maleate salt of the same compound. For example, under the standard conditions in a rotating disc dissolution test, the maleate salt crystals dissolved at a rotating disc dissolution rate (RDDR) of 0.44 mmole sec^−1 cm^−2, whereas the xinafoate salt crystals dissolved at a rate of 0.03 mmole sec^−1 cm^−2 (see FIG. 1). In preferred embodiments, the salt of the invention the salt has a dissolution rate into aqueous solution of about 0.40 mmole sec^−1 cm^−2 or less. In more preferred embodiments, the salt of the invention the salt has a dissolution rate into aqueous solution of about 0.20 mmole sec^−1 cm^−2 or less. In more preferred embodiments, the salt of the invention the salt has a dissolution rate into aqueous solution of about 0.05 mmole sec^−1 cm^−2 or less.
Dissolution rates of sumanirole from xinafoate and maleate crystalline salts were determined using a rotating disk apparatus. In this apparatus, a die containing a pellet comprising a substance of interest is attached to an arm connected to a small motor. The die is submerged in about 500 ml of a dissolution medium at 25° C., and rotated at 300 rpm. The concentration of a compound released into solution is measured in a series of time points using an in situ UV/vis absorbance dip probe linked to a digital computer. For testing the dissolution rates of sumanirole xinafoate and sumanirole maleate crystalline salts, 20 mg of the xinafoate crystalline salt and 20 mg of the maleate crystalline salt were each pressed into pellets of uniform shape at 1000 pounds (3700 psi) for 1 minute. Each pellet was then subjected to dissolution in a rotating disc dissolution apparatus. Measurements of the amount of sumanirole dissolved into the medium, recorded as milligrams of free base equivalent of sumanirole, were plotted against time (FIG. 1). The slope of each curve, normalized to the initial exposed surface area of each disk, was used to calculate a Rotating Disk Dissolution Rate (RDDR) for each salt.

Structure (SMILES) | Rotating Disk Dissolution Rate (RDDR) [mmole sec^−1 cm^−2] | Rotating Disk Dissolution Rate (RDDR) (listed as maleate salt) [mmole sec^−1 cm^−2] | Rotating Disk Dissolution Rate (RDDR) (listed as xinafoate salt) [mmole sec^−1 cm^−2] | dissolution rate relative to the rate of the sumanirole maleate crystalline salt (rotating disk dissolution, 25° C.)
CN[C@@H]1Cc2cccc3[nH]c(=O)n(c23)C1 [sumanirole maleate, (R)-5,6-dihydro-5-(methylamino)-4H-imidazo[4,5,1-ij]quinolin-2(1H)-one, reference compound] | 0.44 | 0.44 | – | –
CN[C@@H]1Cc2cccc3[nH]c(=O)n(c23)C1 [sumanirole xinafoate, (R)-5,6-dihydro-5-(methylamino)-4H-imidazo[4,5,1-ij]quinolin-2(1H)-one] | 0.030 | – | 0.03 | less than 10%
